# Results: patent publication US10537725B2, “Ultrasound-assisted convection enhanced delivery of compounds in vivo with a transducer cannula assembly” (CORNELL UNIVERSITY, priority 2010, dated 2020)
# Assay: Evans blue dye volume distribution in rat brain after CED or ultrasound-assisted CED (UCED) infusion into the caudate
# Type: in vivo, Sprague-Dawley rats
# Settings: for total distribution volume of EBD: 30 min
# Protocol: A total of 40 Sprague-Dawley rats (350 to 450 g) were divided into two equal groups and further divided into four equal subgroups (n=5 in each). The rats were anesthetized, secured into ear bars on a stereotaxic apparatus, and a craniotomy was performed. The caudate of the rat brain was infused with 0.25 wt % Evans blue dye (EBD) in Phosphate-Buffered Saline (PBS) at two different infusion rates of 0.25 μL/min for group 1, and 0.5 μL/min for group 2. […] Using the TCA without ultrasound, the four control subgroups were infused without and with microbubbles (CED and CED+MB). The four UCED subgroups (UCED and UCED+MB) followed the same protocol with the addition of simultaneous continuous wave 1.34 MHz ultrasound operating at a total acoustic power of 0.11+/−0.005 W and peak spatial intensity at the cannula tip of I=49.7 mW/cm^2. Frozen sectioning and histology were performed on the brains, and infusion distribution was three-dimensionally reconstructed using MatLab® analysis. Hematoxylin and Eosin (H&E) staining was used to assess tissue damage and morphological changes to the brain. The application of UCED and UCED+MB improved EBD total volumetric distribution by 2.24 to 3.25 and 1.16 to 1.70 times, respectively (p<0.001). On gross and histological examination, no ultrasound or microbubble related damage to the brain tissue was found. The TCA and battery-powered ultrasound device show promise to improve the distribution of infusate during CED in clinical practice.
# Rats were anesthetized and euthanized by procedures approved by the Institutional Animal Care and Use Committee (IACUC) at Cornell University. A total of 40 Sprague-Dawley rats (350 to 450 g) were divided into two groups (designated Groups 1 and 2) with four subgroups (5 rats in each subgroup). Animals were anesthetized by inhalation of isoflurane gas and secured in a stereotaxic frame. The head was shaved, 0.5 ml of bupivicaine was applied under the skin as a local anesthetic and an incision was made in the skin along the dorsal midline of the skull. A small craniotomy (6-7 mm diameter) was made over the left side of the exposed skull using a dental drill. The TCA was guided using a micromanipulator to +0 mm anterior, +3 mm lateral and −5.5 mm ventral from bregma, lowered at 0.25 mm per second into the caudate of the rat brain and allowed to equilibrate for two minutes. 1-2 ml of artificial cerebral spinal fluid (aCSF) and a gel-foam dam was used to couple acoustic energy from the face of the TCA into the rodent brain. The TCA was powered on with the pocket-sized ultrasound system at the +/−11.1 V setting and infusion began.
# For each rat, the entire experiment lasted a total of 30 min. The control subgroups of CED and CED+MB (n=5 in each) were infused using the TCA with no ultrasound therapy for 30 min. For the experimental subgroups of UCED and UCED+MB (n=5 in each), infusion and ultrasound exposure at an acoustic power of 0.11+/−0.005 W, and TCA face intensity of 0.095 W/cm^2 which corresponded to a cannula tip intensity of 0.0497 W/cm^2 for 30 min was applied simultaneously. Filtered Evan's blue dye (EBD) 0.25 wt % in phosphate buffered saline (PBS) without or with 5×10^5 stabilized microbubbles per μL with median diameter of 2.5 μm (Targestar™-P, Targeson Inc.) was infused using a microinfusion pump (Worker Bee™, Bioanalytical Systems, Inc.).
# The starting infusion flow rate for the experiments of Group 1 was 0.05 μL/min for 5 min; the infusion flow rate was then increased to 0.1 μL/min for an additional 5 min, to a final flow rate of 0.25 μL/min for 20 min. The starting infusion flow rate of Group 2 was 0.1 μL/min for 5 min; the infusion flow rate was then increased to 0.25 μL/min for an additional 5 min, to a final flow rate of 0.5 μL/min for 20 min.
# After 30 min of simultaneous infusion and ultrasound therapy the experiment was stopped. The TCA was left in the tissue for 1-2 min before being removed while euthanasia via cardiac urethane injection was performed. […]
smiles,measurement,setting,value
"Cc1cc(-c2ccc(/N=N/c3ccc4c(S(=O)(=O)O)cc(S(=O)(=O)O)c(N)c4c3O)c(C)c2)ccc1/N=N/c1ccc2c(S(=O)(=O)O)cc(S(=O)(=O)O)c(N)c2c1O [EBD, Evans blue dye]",total distribution volume of EBD,"group 1, 0.25 μL/min infusion, left caudate, CED",13.6 mm^3
same,total distribution volume of EBD,"group 1, 0.25 μL/min infusion, left caudate, CED+MB",15.9 mm^3
same,total distribution volume of EBD,"group 1, 0.25 μL/min infusion, left caudate, UCED",33.1 mm^3
same,total distribution volume of EBD,"group 1, 0.25 μL/min infusion, left caudate, UCED+MB",27.0 mm^3
same,total distribution volume of EBD,"group 1, 0.25 μL/min infusion, left hemisphere, CED (no ultrasound)",20.6 mm^3
same,total distribution volume of EBD,"group 1, 0.25 μL/min infusion, left hemisphere, CED+MB (microbubbles, no ultrasound)",19.7 mm^3
same,total distribution volume of EBD,"group 1, 0.25 μL/min infusion, left hemisphere, UCED (1.34 MHz ultrasound)",46.3 mm^3
same,total distribution volume of EBD,"group 1, 0.25 μL/min infusion, left hemisphere, UCED+MB",26.9 mm^3
same,increase of EBD distribution volume,"group 1, 0.25 μL/min, left caudate, UCED compared to CED",2.44 ×
same,increase of EBD distribution volume,"group 1, 0.25 μL/min, left caudate, UCED+MB compared to CED+MB",1.7 ×
same,increase of EBD distribution volume,"group 1, 0.25 μL/min, left hemisphere, UCED compared to CED",2.24 ×
same,increase of EBD distribution volume,"group 1, 0.25 μL/min, left hemisphere, UCED+MB compared to CED+MB",1.37 ×
same,total distribution volume of EBD,"group 2, 0.5 μL/min infusion, left caudate, UCED",70.2 mm^3
same,total distribution volume of EBD,"group 2, 0.5 μL/min infusion, left caudate, UCED+MB",30.2 mm^3
same,total distribution volume of EBD,"group 2, 0.5 μL/min infusion, left hemisphere, CED",37.4 mm^3
same,total distribution volume of EBD,"group 2, 0.5 μL/min infusion, left hemisphere, CED+MB",31.9 mm^3
same,total distribution volume of EBD,"group 2, 0.5 μL/min infusion, left hemisphere, UCED",111 mm^3
same,total distribution volume of EBD,"group 2, 0.5 μL/min infusion, left hemisphere, UCED+MB",37.1 mm^3
same,increase of EBD distribution volume,"group 2, 0.5 μL/min, left caudate, UCED compared to CED",3.25 ×
same,increase of EBD distribution volume,"group 2, 0.5 μL/min, left caudate, UCED+MB compared to CED+MB",1.54 ×
same,increase of EBD distribution volume,"group 2, 0.5 μL/min, left hemisphere, UCED compared to CED",2.96 ×
same,increase of EBD distribution volume,"group 2, 0.5 μL/min, left hemisphere, UCED+MB compared to CED+MB",1.16 ×
